In data set [1] the test system is Ab15421 (rabbit polyclonal antibody to posaconazole). Nature of the data set: Specificity of the immunoassay: cross-reactivity to antifungal triazoles. In kind it is binding. Particulars: Ab15421 with POS-IV G6PDH; for Cross-reaction of Ab15421 with other azole antifungals (in words): human serum samples, 10 μg/mL; for Cross-reactivity (%): triazole 20 μg/ml added to Posaconazole 10 μg/ml vs Posaconazole 10 μg/ml control, human serum. An excerpt:
Antibodies obtained using any of the disclosed techniques are screened or purified not only for their ability to react with posaconazole, but for a low cross-reactivity with potential interfering substances. “Cross-reactivity” may be determined in a quantitative immunoassay by establishing a standard curve using known dilutions of the target analyte, posaconazole. The standard curve is then used to calculate the apparent concentration of the interfering substance present in various known amounts in samples assayed under similar condition. The cross-reactivity can be calculated as the apparent concentration divided by the actual concentration multiplied by 100. A certain immunoassay for determining cross-reactivity is a homogeneous enzyme immunoassay using a wild type G6PDH as described in U.S. Pat. No. 3,817,837 or mutant G6PDH engineered to contain a cysteine per subunit as described in U.S. Pat. Nos. 6,033,890, 6,090,567 and 6,455,288. Furthermore, the cross-reactivity can be determined in the same type of immunoassay in which the antibody will ultimately be used.
To human serum negative for antifungal azoles was added posaconazole dissolved in methanol to achieve a concentration of 10 μg/mL of posaconazole. […]
The assay was calibrated as described in Example 8 using Enzyme Conjugate Reagent NB051:154 containing conjugate POS-IV G6PDH and Antibody Reagent NB051:154 containing Ab15421. The testing was performed on the HITACHI 917. The samples were quantified from the calibration curve generated.

For data set [2] the following is noted: cited from earlier work.
The test system of data set [3] is Ab15421 (rabbit polyclonal antibody to posaconazole). Nature of the data set: Homogeneous enzyme immunoassay calibration curve (POS-IV G6PDH conjugate and Ab15421) in pooled human serum. Format: binding. As to conditions: HITACHI 917, 340 nm. The procedure: Ab15421 was used to measure enzyme activity, generate a calibration curve, and evaluate assay precision, accuracy and specificity. Ab15421 was added into the antibody diluent to prepare the antibody reagent. The antibody reagent included Ab15421 as prepared above, buffer, stabilizers, preservatives, and the substrates for the enzyme conjugate nicotinamide adenine dinucleotide (NAD^+) and glucose-6-phosphate. Enzyme conjugate POS-IV G6PDH was added into the conjugate reagent to prepare the enzyme conjugate reagent. The enzyme conjugate reagent included the conjugate, buffer, stabilizers and preservatives. Enzyme conjugate POS-IV G6PDH was used with Ab15421 in examples below.
Ab15421 was added into the antibody diluent to prepare the antibody reagent. The antibody reagent included Ab15421 as prepared above, buffer, stabilizers, preservatives, and the substrates for the enzyme conjugate NAD^+ and glucose 6 phosphate. Enzyme conjugate POS-IV G6PDH or a label protein including alkaline phosphatase, β-galactosidase and horse radish peroxidase was added into the conjugate reagent to prepare the enzyme conjugate reagent. The enzyme conjugate reagent included the conjugate, buffer, stabilizers and preservatives.
The posaconazole antibodies and enzyme conjugates were used in a homogeneous assay format to detect posaconazole samples. Posaconazole containing sample was incubated with antibody reagent followed by the addition of the enzyme conjugate reagent. The enzyme conjugate activity decreased upon binding to Ab15421. The enzyme conjugate, which was not bound to Ab15421, catalyzed the oxidation of glucose 6-phosphate (G6P). The oxidation of G6P was coupled with the reduction of NAD^+ to NADH, which was measured at 340 nm. The change in the absorbance at 340 nm was measured spectrophotometrically. The posaconazole concentration in a sample was measured in terms of G6PDH activity. The increase in the rate at 340 nm was due to the formation of NADH and was proportional to the enzyme conjugate activity. An assay curve was generated using posaconazole added into serum negative for posaconazole. The assay rate increased with increasing the concentration of free drug in the sample.
Posaconazole was dissolved in methanol to give a stock solution of 1000 μg/mL. Pooled human serum was aliquoted in 10 mL portions. Posaconazole stock solution was added to the aliquots of human serum in preparing a series of known concentrations of posaconazole calibrators ranging from 0 to 16 μg/mL. The assay was performed using Enzyme Conjugate Reagent NB051:154 containing conjugate POS-IV G6PDH and Antibody Reagent NB051:154 containing Ab15421. Calibration curves were generated on the HITACHI 917 automated clinical chemistry analyzer, as described in Example 7 by measuring each level in duplicate.

Bounds are passed on as bounds.

In the case of `OC(Cn1cncn1)(Cn1cncn1)c1ccc(F)cc1F` [Fluconazole], in data set [1], the “Cross-reaction of Ab15421 with other azole antifungals (in words)” value is reported as “did not crossreact” and the “Cross-reactivity (%)” value is on record as below 0.01%.
With `CC[C@@H]([C@H](C)O)n1ncn(-c2ccc(N3CCN(c4ccc(OC[C@@H]5CO[C@@](Cn6cncn6)(c6ccc(F)cc6F)C5)cc4)CC3)cc2)c1=O` [Posaconazole, 4-[4-[4-[4-[[(3R,5R)-5-(2,4-difluorophenyl)tetrahydro-5-(1H 1,2,4-triazol-1-ylmethyl)-3-furanyl]methoxy]phenyl]-1-piperazinyl]phenyl]-2-[(1S,2S)-1-ethyl-2-hydroxypropyl]-2,4-dihydro-3H-1,2,4-triazol-3-one], the “Increase of bioavailability on coadministration with food” value in data set [2] (coadministration with food) is “up to 4 fold”. Moreover, the “Bioavailability (in words)” value in data set [2] (oral, saturable absorption) was “low and highly variable bioavailability”. Moreover, the “Reaction Rate (mA/min) Average of Duplicates” value in data set [3] (Posaconazole Conc. 1.0 μg/mL in pooled human serum) came to 165.7 mA/min; in data set [3] (Posaconazole Conc. 2.0 μg/mL in pooled human serum), 235.5 mA/min; in data set [3] (Posaconazole Conc. 4.0 μg/mL in pooled human serum), 304.7 mA/min; in data set [3] (Posaconazole Conc. 8.0 μg/mL in pooled human serum), 371.7 mA/min; in data set [3] (Posaconazole Conc. 16.0 μg/mL in pooled human serum) it was 409.4 mA/min.
Regarding `C[C@@H](c1ncncc1F)[C@](O)(Cn1cncn1)c1ccc(F)cc1F` [Voriconazole], in data set [1], the “Cross-reaction of Ab15421 with other azole antifungals (in words)” value is listed as “did not crossreact” and the “Cross-reactivity (%)” value was below 0.01%.
